Data: publication PMC3401419 (Journal of the American Chemical Society, 2012)
Where two headings read alike, the source gives them in different places. Where a SMILES comes first, the peptide text is derived from it.

Columns and labels:
[1] = biological target: T1, Recombinant human somatic ACE (sACE-1) (Homo sapiens, UniProt P12821); assay: biochemical
[2] = biological target: T1, Recombinant human somatic ACE (sACE-1); assay: Concentration-dependent inhibition of sACE-1; details: inhibitor and substrate concentration varied, Dixon plots
[3] = biological target: T1, Recombinant human somatic ACE (sACE-1); details: pH 7.4
[4] = biological target: T1, Recombinant human somatic ACE (sACE-1); assay: Time-dependent inactivation of sACE-1 with coreactants; details: pH 7.4, 37 °C, same concentration as corresponding lisinopril complex

T1 sequence (P12821 30-1261): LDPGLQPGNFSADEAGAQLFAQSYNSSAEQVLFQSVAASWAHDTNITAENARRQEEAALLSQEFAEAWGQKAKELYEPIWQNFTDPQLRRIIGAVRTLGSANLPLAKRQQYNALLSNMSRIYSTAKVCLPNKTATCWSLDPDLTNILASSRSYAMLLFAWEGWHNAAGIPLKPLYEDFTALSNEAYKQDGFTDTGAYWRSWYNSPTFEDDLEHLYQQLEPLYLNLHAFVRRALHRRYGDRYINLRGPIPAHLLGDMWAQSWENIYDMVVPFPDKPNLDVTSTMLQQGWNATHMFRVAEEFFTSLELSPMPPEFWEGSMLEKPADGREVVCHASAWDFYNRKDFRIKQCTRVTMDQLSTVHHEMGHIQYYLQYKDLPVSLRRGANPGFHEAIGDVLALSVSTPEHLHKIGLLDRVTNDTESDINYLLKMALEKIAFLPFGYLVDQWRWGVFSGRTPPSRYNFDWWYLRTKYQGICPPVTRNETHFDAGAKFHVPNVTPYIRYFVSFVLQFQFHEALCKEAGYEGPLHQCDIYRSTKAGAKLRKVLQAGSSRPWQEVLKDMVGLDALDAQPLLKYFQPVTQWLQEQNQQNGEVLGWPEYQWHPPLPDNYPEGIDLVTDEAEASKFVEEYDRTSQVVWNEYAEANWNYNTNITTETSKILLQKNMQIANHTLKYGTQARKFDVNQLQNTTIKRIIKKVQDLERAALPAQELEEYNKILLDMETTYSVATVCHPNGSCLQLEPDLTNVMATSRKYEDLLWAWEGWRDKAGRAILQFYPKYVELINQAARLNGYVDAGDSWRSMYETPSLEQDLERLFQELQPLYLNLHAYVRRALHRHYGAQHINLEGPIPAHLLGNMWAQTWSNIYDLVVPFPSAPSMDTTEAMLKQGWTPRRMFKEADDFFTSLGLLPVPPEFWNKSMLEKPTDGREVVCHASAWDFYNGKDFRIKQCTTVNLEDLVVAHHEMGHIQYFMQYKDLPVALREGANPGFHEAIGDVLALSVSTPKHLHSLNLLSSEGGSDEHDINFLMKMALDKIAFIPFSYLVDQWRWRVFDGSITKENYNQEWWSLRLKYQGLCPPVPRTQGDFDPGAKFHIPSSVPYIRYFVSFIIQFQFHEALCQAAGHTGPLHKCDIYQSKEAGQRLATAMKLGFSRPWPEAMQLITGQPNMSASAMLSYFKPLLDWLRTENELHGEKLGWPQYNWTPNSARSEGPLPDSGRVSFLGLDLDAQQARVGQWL

SMILES	IC50 [1] [µM]	IC50 [3] [µM]	further results
NCCCC[C@H](N[C@@H](CCc1ccccc1)C(=O)O)C(=O)N1CCC[C@H]1C(=O)O [lisinopril]	–	–	mode of inhibition of sACE-1 [2]: competitive
O=C(O)CN(CCN(CC(=O)O)CC(=O)O)CC(=O)O [EDTA, Ethylenediamine-tetraacetic acid]	7.2	–	–
O=C([O-])CN(CCN(CC(=O)[O-])CC(=O)[O-])CC(=O)[O-].[Cu+2] [Cu-EDTA]	–	26	k2 for inactivation of sACE-1, M-chelate without lisinopril (control) ([4]; Ascorbate): 2,000 ± 3,000 {-- ^d} M^−1min^−1; k2 for inactivation of sACE-1, M-chelate without lisinopril (control) ([4]; H2O2): < 3,000 {-- ^d} M^−1min^−1
NCC(=O)NCC(=O)N[C@@H](Cc1cnc[nH]1)C(=O)O [GGH] (H-Gly-Gly-His-OH)	–	> 100	–
O=C([O-])CN(CC(=O)[O-])CC(=O)O.[Cu+2] [Cu-NTA]	–	36	–

Now from value to compound, other results behind:

IC50 [1] [µM]	IC50 [3] [µM]	SMILES	further results
32	–	O=C(O)CN(CC(=O)O)CC(=O)O [NTA, Nitrilotriacetic acid]	–
7	–	O=C(O)CN1CCN(CC(=O)O)CCN(CC(=O)O)CCN(CC(=O)O)CC1 [DOTA, 1,4,7,10-tetraazacyclododecane-1,4,7,10-tetraacetic acid]	–
